# Patent US9006228B2 (Merck Sharp & Dohme Corp., priority 2011, dated 2015)
# Target: T1, human GPR119 (Homo sapiens, UniProt Q8TDV5)
# T1 sequence (Q8TDV5 1-308 limits assumed): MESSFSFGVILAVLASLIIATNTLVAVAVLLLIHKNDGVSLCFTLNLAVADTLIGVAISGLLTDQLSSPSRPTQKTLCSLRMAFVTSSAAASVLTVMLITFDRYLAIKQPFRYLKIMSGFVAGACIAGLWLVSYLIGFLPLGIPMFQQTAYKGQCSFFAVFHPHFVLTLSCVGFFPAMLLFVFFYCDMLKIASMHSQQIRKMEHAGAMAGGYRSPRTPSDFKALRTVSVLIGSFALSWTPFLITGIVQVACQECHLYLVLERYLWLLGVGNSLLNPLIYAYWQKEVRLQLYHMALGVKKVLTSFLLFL
# Test: Measurement of GPR119 signaling (cAMP assay; LANCE kit or HTRF) in HEK293 cells stably transfected with human GPR119
# Format: cell-based
# Details: agonist-stimulated cAMP in HEK293 cells expressing human GPR119
# Description: Measurement of GPR119 Signaling Using LANCE 384-Well cAMP Kit
# The adenylate cyclase assay was constructed following the LANCE™ cAMP Kit (Perkin Elmer, AD0264) instructions. […] The reaction was stopped by incubating with the supplied detection buffer containing the europium chelate of the Eu-SA/Biotin-cAMP tracer for 3 hours. The assay was performed in duplicate in a 384 well plate for duplicate plates. Fluorescence at 665 nm was measured using a PHERAstar instrument. Basal activity was determined using a DMSO control and maximum response was defined as cAMP stimulation produced by an internal agonist control. Standard cAMP concentrations were assayed concurrently for conversion of fluorescence signal to cAMP level. The data was analyzed using 4-parameter curve fit in Microsoft Excel.
# Measurement of GPR119 Signaling Using a Cyclic AMP (cAMP) Homogenous Time Resolved Fluorescence (HTRF) Assay
# Chinese hamster ovary (CHO) cell lines stably transfected with the permissive guanine nucleotide binding protein alpha 15 (Gα15) and murine GPR119 were maintained in DMEM media containing FBS, penicillin-streptomycin, puromycin, and G418 (geneticin). […] Agonist activation of the GPR119 receptor was measured in receptor transfected cells described above, treated with compounds of this invention, using a commercial homogenous time resolved fluorescence (HTRF) kit for measurement of cAMP (CisBio, Bedford, Mass.). The assay was performed in 96-well half-volume plates (murine) or 384-well plates (human) following the manufacturers instructions. Briefly, suspended cells were incubated with a dose titration of test compound at RT for 60 min, lysed, and incubated with HTRF reagents for an additional 60 min. The plate was read using an Envision multilabel reader (Perkin Elmer) adjusted to read time resolved fluorescence and the cAMP concentrations were extrapolated from a cAMP calibration curve. […] The concentration of test compound required to stimulate a half-maximal response (EC50), and efficacy as compared to an internal agonist control, was determined from a sigmoidal 4-parameter curve fit of the resulting plot of normalized activity versus compound concentration.
row,SMILES,EC50
1,"COCc1cnc(N2CCC([C@H]3C[C@H]3COCc3ccc(CC(=O)N4CC(F)C4)cc3F)CC2)nc1 [Example 148, 2-(3-fluoro-4-((((1R,2R)-2-(1-(5-(methoxymethyl)pyrimidin-2-yl)piperidin-4-yl)cyclopropyl)methoxy)methyl)phenyl)-1-(3-fluoroazetidin-1-yl)ethanone]",3.56 nM
2,"O=S(=O)(CCO)c1ccc(COC[C@@H]2C[C@@H]2C2CCN(c3ncc(Cl)cn3)CC2)nc1 [Example 86, 2-({6-[({(1R,2R)-2-[1-(5-chloropyrimidin-2-yl)piperidin-4-yl]cyclopropyl}methoxy)methyl]pyridin-3-yl}sulfonyl)ethanol]",22 nM
3,"CCS(=O)(=O)c1ccc(COC[C@@H]2C[C@@H]2C2CCN(c3nc(C(C)C)no3)CC2)cc1F [Example 38, 4-[(1R,2R)-2-({[3-fluoro-4-(ethylsulfonyl)benzyl]oxy}methyl)cyclopropyl]-1-(3-isopropyl-1,2,4-oxadiazol-5-yl)piperidine]",0.4 nM
4,"CS(=O)(=O)c1c(F)cc(COC[C@@H]2C[C@@H]2C2CCN(c3ncc(Cl)cn3)CC2)cc1F [Example 45, 5-chloro-2-{4-[(1R,2R)-2-({[3,5-difluoro-4-(methylsulfonyl)benzyl]oxy}methyl)cyclopropyl]piperidin-1-yl}pyrimidine]",0.6 nM
5,CCc1cnc(N2CCC([C@H]3C[C@H]3COCc3ccc(-c4cncnc4)cc3)CC2)nc1 [Example 120],1.9 nM
6,"CS(=O)(=O)c1ccc(COC[C@@H]2C[C@@H]2C2CCN(c3ncc(Cl)cn3)CC2)nc1 [Example 1, 5-chloro-2-{4-[(1R,2R)-2-({[5-(methylsulfonyl)pyridin-2-yl]methoxy}methyl)cyclopropyl]piperidin-1-yl}pyrimidine]",8.7 nM
7,CS(=O)(=O)c1ccc(COC[C@@H]2C[C@@H]2C2CCN(c3ncc(-c4cn[nH]c4)cn3)CC2)nc1 [Example 7],15.6 nM
8,"CCS(=O)(=O)c1ccc(COC[C@@H]2C[C@@H]2C2CCN(c3nc(C(C)C)no3)CC2)cc1 [Example 26, 4-[(1R,2R)-2-({[4-(ethylsulfonyl)benzyl]oxy}methyl)cyclopropyl]-1-(3-isopropyl-1,2,4-oxadiazol-5-yl)piperidine]",3.1 nM
9,O=C(c1ccc(COC[C@@H]2C[C@@H]2C2CCN(c3ncc(Cl)cn3)CC2)cc1F)C1CC1 [Example 51],3.7 nM
10,CCc1cnc(N2CCC([C@H]3C[C@H]3COCc3ccc(S(=O)(=O)CCO)cc3F)CC2)nc1 [Example 83],21 nM

# The remaining molecules from weak to strong by EC50, led by results:
row,EC50,SMILES
1,20 nM,"COC(=O)c1cnc(N2CCC([C@H]3C[C@H]3COCc3ccc(S(C)(=O)=O)cc3)CC2)nc1 [Example 17, methyl 2-{4-[(1R,2R)-2-({[4-(methylsulfonyl)benzyl]oxy}methyl)cyclopropyl]piperidin-1-yl}pyrimidine-5-carboxylate]"
2,3.2 nM,"CS(=O)(=O)c1ccc(COC[C@@H]2C[C@@H]2C2CCN(C(=O)OCC3CC3)CC2)cc1 [Example 13, cyclopropylmethyl 4-[(1R,2R)-2-({[4-(methylsulfonyl)benzyl]oxy}methyl)cyclopropyl]piperidine-1-carboxylate]"
3,2.9 nM,"CCc1cnc(N2CCC([C@H]3C[C@H]3COCc3ccc(-c4ccnc(OC)n4)cc3F)CC2)nc1 [Example 106, 4-{4-[({(1R,2R)-2-[1-(5-ethylpyrimidin-2-yl)piperidin-4-yl]cyclopropyl}methoxy)methyl]-3-fluorophenyl}-2-methoxypyrimidine]"
4,0.2 nM,"CC(C)c1noc(N2CCC([C@H]3C[C@H]3COCc3ccc(S(C)(=O)=O)c(F)c3)CC2)n1 [Example 35, 4-[(1R,2R)-2-({[3-fluoro-4-(methylsulfonyl)benzyl]oxy}methyl)cyclopropyl]-1-(3-isopropyl-1,2,4-oxadiazol-5-yl)piperidine]"
